This note sets out measurements from ChEMBL document CHEMBL3244367, “Synthesis and determination of antiviral activity of the 2'(3')-O-methyl derivatives of ribavirin (1-beta-D-ribofuranosyl-1,2,4-triazole-3-carboxamide)” (1977).

In brackets after ≈: the same amount, converted by molar mass.

The assay has as its system Vaccinia virus. Put plainly: Antiviral activity against Vaccinia virus infected in primary rabbit kidney cells assessed as inhibition of virus-induced cytopathogenicity treated immediately after virus adsorption measured 2 days after virus infection. Conditions: Orthopoxvirus vaccinia, 48 h. Format: functional. On the technique in general: Cytopathic effects are the visible damage that an infection or toxin causes in cultured cells.
In the case of `CO[C@@H]1[C@H](O)[C@@H](CO)O[C@H]1n1cnc(C(N)=O)n1`, the MIC50 is above 200 µg/mL.

In the case of `NC(=O)c1ncn([C@@H]2O[C@H](CO)[C@@H](O)[C@H]2O)n1` [RIBAVIRIN], the MIC50 came to 20 µg/mL (≈ 81.9 µM).

As for `CO[C@H]1[C@@H](O)[C@H](n2cnc(C(N)=O)n2)O[C@@H]1CO`, the MIC50 was above 200 µg/mL.
